# From patent US10882866B1, “Spiro[3H-indole-3,2′-pyrrolidin]-2(1H)-one compounds and derivatives as MDM2-P53 inhibitors” (Boehringer Ingelheim International GmbH, priority 2015, dated 2021)
# Tests used:
# [1] = target: GST-MDM2 protein (aa 23-117) / biotinylated p53 wt peptide (p53-MDM2 interaction) (Homo sapiens (Human), UniProt Q00987); experiment: Mdm2-p53 Inhibition AlphaScreen; type: binding; settings: 20 nM GST-MDM2 (aa 23-117), 20 nM biotinylated p53 wt peptide
# Method: Mdm2-p53 Inhibition AlphaScreen
# 15 μL of compound in 20% DMSO (serial pre-dilutions of compound are done in 100% DMSO) is pipetted to the wells of a white OptiPlate-96 (PerkinElmer). A mix consisting of 20 nM GST-MDM2 protein (aa 23-117) and 20 nM biotinylated p53 wt peptide (encompassing aa 16-27 of wt human p53, amino acid sequence […]-Ttds-Lys-Biotin, molecular weight 2132.56 g/mol) is prepared in assay buffer (50 mM Tris/HCl pH 7.2; 120 mM NaCl; 0.1% bovine serum albumin (BSA); 5 mM dithiothreitol (DTT); 1 mM ethylenediaminetetraacetic acid (EDTA); 0.01% Tween 20). 30 μL of the mix is added to the compound dilutions and incubated for 15 min at rt while gently shaking the plate at 300 rounds per minute (rpm). Subsequently, 15 μL of premixed AlphaLISA Glutathione Acceptor Beads and AlphaScreen Streptavidin Donor Beads from PerkinElmer (in assay buffer at a concentration of 10 μg/mL each) are added and the samples are incubated for 30 min at rt in the dark (shaking 300 rpm). Afterwards, the signal is measured in a PerkinElmer Envision HTS Multilabel Reader using the AlphaScreen protocol from PerkinElmer.
# Each plate contains negative controls where biotinylated p53-peptide and GST-MDM2 are left out and replaced by assay buffer. Negative control values are entered as low basis value when using the software GraphPad Prism for calculations. […]
# [2] = test system: human acute myeloid leukemia (AML) xenograft models harboring p53 wild-type; settings: cited from earlier work
# [3] = test system: human prostate tumor xenograft models harboring p53 wild-type; settings: cited from earlier work
# Chain of GST-MDM2 protein (aa 23-117) / biotinylated p53 wt peptide (p53-MDM2 interaction) (Q00987 23-117): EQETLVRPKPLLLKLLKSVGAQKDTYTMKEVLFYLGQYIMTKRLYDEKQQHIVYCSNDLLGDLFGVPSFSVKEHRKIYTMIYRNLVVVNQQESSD
IC50 [1] [nM],SMILES,antiproliferative and proapoptotic activity [2],antiproliferative and proapoptotic activity [3]
2,COc1cc2c(cc1C(N)=O)nc1n2CC[C@H]2[C@@H]1[C@H](c1cccc(Cl)c1F)[C@]1(C(=O)Nc3cc(Cl)ccc31)N2CC1CC1 [Ib-234],,
,CCOc1cc(C(C)(C)C)ccc1C1=N[C@@](C)(c2ccc(Cl)cc2)[C@@](C)(c2ccc(Cl)cc2)N1C(=O)N1CCN(CCCS(C)(=O)=O)CC1 [RG7112],antiproliferative and proapoptotic activity of RG7112 has been observed,antiproliferative and proapoptotic activity of RG7112 has been observed
